Results published in PubChem BioAssay (NCI).
“And” between values parts separate entries of the source, which are not always exact repeats. Equal entries are not always repeated.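 Interpolation was linear, between the two tested concentrations surrounding the appropriate level; five concentrations were tested over 48 hours in 96-well plates. The concentration for 50% growth inhibition is given as GI50. TGI: concentration producing complete growth inhibition.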

Columns and labels:
Test in all cases: growth of human tumour cells (NCI), 48 h
[1] = test system: KM12 colon
[2] = test system: SN12C renal
[3] = test system: NCI-H23 lung
[4] = test system: SK-OV-3 ovarian
[5] = test system: HCC-2998 colon
[6] = test system: COLO 205 colon
[7] = test system: NCI-H522 lung
[8] = test system: SF-539 CNS
[9] = test system: U251 CNS
[10] = test system: HOP-92 NSCLC

Row | SMILES | TGI [1] | TGI [2] | TGI [3] | TGI [4] | TGI [5] | TGI [6] | TGI [7] | TGI [8] | TGI [9] | TGI [10] | GI50 [1] [µM] | GI50 [2] | GI50 [3] | GI50 [4] | GI50 [5] | GI50 [6] | GI50 [7] | GI50 [8] | GI50 [9] | GI50 [10]
1 | CC(C)N(C(=O)C12C3C4C1(I)C1C2C3(I)C41C(=O)N(C(C)C)C(C)C)C(C)C (centres undefined) | > 62.5 µM | > 100 µM | > 100 µM | > 100 µM | > 100 µM | > 100 µM | > 100 µM | > 59.6 µM | > 100 µM | > 100 µM |  |  |  |  |  |  |  |  |  | 
2 | CCN1C(=O)N(CC)C2C1NN=c1s/c(=C3\C(=O)N(CC(C)(C)C)c4ccccc43)c(=O)n12 (centres undefined) | 18.4 µM | 11.3 µM | 14.5 µM | 74.6 µM | 13.8 µM | 13.5 µM | 18.5 µM | 11.1 µM | 20.6 µM | 16 µM | 3.67 | 2.21 µM | 3.39 µM | 10.7 µM | 3.4 µM | 3.31 µM | 3.19 µM | 2.95 µM | 4.13 µM | 2.56 µM
3 | c1ccc2c(c1)c1c(c3ccccc32)CN2CCCC2C1 (centres undefined) | 15.7 µM | 14.9 µM | 10.3 µM | > 100 µM | 17.1 µM | 13.8 µM | 9.9 µM | 10.7 µM | 23.1 µM | 13.4 µM |  |  |  |  |  |  |  |  |  | 
4 | O=S(=O)(Nc1ccc(F)cc1F)c1ccc(-c2cnc(C3CC3)o2)cc1 | 28.5 µM | 39.8 µM | 68.9 µM | 61.6 µM | 27.3 µM | 17.1 µM | 16 µM | 5.71 µM | 26.8 µM | 10.6 µM | 0.485 | 0.878 µM | 1.75 µM | 2.52 µM | 2.39 µM | 0.767 µM | 0.347 µM | 0.674 µM | 0.552 µM | 0.25 µM
5 | S=c1[nH]c(=S)c2nnn(-c3ccccc3)c2[nH]1 | > 100 µM | > 100 µM | > 100 µM | > 100 µM | > 100 µM | > 100 µM | > 100 µM | > 100 µM | > 100 µM | > 100 µM |  |  |  |  |  |  |  |  |  | 
6 | O=C1c2ccccc2-c2c1c1ccccc1c(=O)n2CCCCl | > 100 µM | 51.8 µM | 50.1 µM | 62.2 µM | 96.6 µM |  | > 100 µM | 21.5 µM | 31.5 µM | 43.3 µM | 34 | 12.1 µM | 15.7 µM | 19.1 µM | 10.4 µM |  | 37.4 µM | 4.11 µM | 11 µM | 16.8 µM
7 | Cc1cc(C)c(/C=C2\C(=O)Nc3ccc(NC(=O)CCCCCCC(=O)NO)cc32)[nH]1 | > 100 µM | > 100 µM | > 100 µM | 4.56 µM | > 100 µM | 2.32 µM | 1.82 µM | > 100 µM | 10.4 µM | > 100 µM | 7.2 | > 20.4 µM | 3.79 µM | 0.664 µM | 5.68 µM | 0.479 µM | 0.208 µM | 0.521 µM | 0.529 µM | 0.47 µM
8 | O=C(c1ccc(/C=C/c2n[nH]c3ccccc23)cc1)N1CCNCC1 | > 10 µM and 5.35 µM | > 10 µM and 19.4 µM | > 10 µM and 16.9 µM | > 10 µM and 20.4 µM | > 10 µM and 34.1 µM | > 10 µM and 5.9 µM | 3.52 µM and 26.5 µM | 6.74 µM and 9.92 µM | 3.33 µM and 27.2 µM | > 10 µM and 7.63 µM |  | > 10 µM and 2.43 µM | > 10 µM and 2.55 µM | > 10 µM and 5.15 µM | > 10 µM and 12.1 µM | 3.96 µM and 0.598 µM | 1.72 µM and 11 µM | 2.18 µM and 1.83 µM | 1.81 µM and 12.2 µM | 2.71 µM and 1.89 µM
9 | CC(C)C(=O)Nc1nc2c(ncn2C2OC(CO)C(O)C2O)c(=O)[nH]1 (centres undefined) | > 100 µM | > 100 µM | > 100 µM | > 100 µM | > 100 µM | > 100 µM | > 100 µM | > 100 µM | > 100 µM | > 100 µM |  |  |  |  |  |  |  |  |  | 
10 | COC(=O)[C@H]1C=C[C@@H](C)n2c(=O)c3cc4ccccc4cc3c(=O)n21 | > 100 µM | > 100 µM | > 100 µM | > 100 µM | > 100 µM | > 100 µM | > 100 µM | > 100 µM | > 100 µM | > 100 µM |  |  |  |  |  |  |  |  |  | 
11 | Cc1cc(C)c(NC(=O)c2sc3nc4c(cc3c2N)CN(Cc2ccccc2)CC4)c(C)c1 | 43.1 µM | > 100 µM | > 100 µM | > 100 µM | 38.4 µM | 10.1 µM | 6.82 µM | 7.79 µM | 24.2 µM | 42.6 µM | 3.26 | 5.6 µM | 4.51 µM | 5.35 µM | 5.33 µM | 2.98 µM | 1.6 µM | 2.44 µM | 4.35 µM | 0.877 µM
12 | O=C(O)CC(NC(=O)CP(=O)(O)O)C(=O)O (centres undefined) | > 10000 µM | > 9020 µM | > 10000 µM | > 7930 µM | > 10000 µM | > 10000 µM | 9910 µM | > 10000 µM | > 10000 µM | 2380 µM | 95.5 |  |  |  |  |  | 78.3 µM | 89.5 µM |  | 
13 | O=C1NC(=NCCc2cccc(Cl)c2)S/C1=C\c1ccc2ncccc2c1 | > 25 µM | > 25 µM | > 25 µM | > 25 µM | > 25 µM | > 25 µM | > 25 µM | > 25 µM | > 25 µM | > 25 µM | 1.32 | > 25 µM | > 25 µM | > 25 µM | > 25 µM | > 25 µM | > 25 µM | > 25 µM | > 25 µM | > 25 µM
14 | Cc1cc(C)nc(NS(=O)(=O)c2ccc(NC(=O)c3cccc4c(Nc5ccc(S(N)(=O)=O)cc5)c5ccccc5nc34)cc2)n1 | 47.3 µM | > 82.6 µM | > 100 µM | 28.4 µM | 36.1 µM | > 62.5 µM | 38.7 µM | 20.5 µM | > 71.2 µM | 61.1 µM |  |  |  |  |  |  |  |  |  | 
15 | O=C1OCC2C1C1c3ccccc3C(O)c3ccccc3C21 (centres undefined) | > 100 µM | > 100 µM | > 100 µM | > 100 µM | > 100 µM | > 100 µM |  | > 100 µM | > 100 µM | > 100 µM |  |  |  |  |  |  |  |  |  | 
